This is an account of results in US20090130229A1, “Antitumor uses of compound” (Cell Therapeutics, Inc., priority 2002, published 2009).

Entries after “also recorded” stand apart in the source; their conditions may differ.

One assay concerns the target T1, Ret/MEN2A(C634R) (Homo sapiens, UniProt P07949, C634R).
T1 construct: expressed in transfected cells; host or cells: NIH3T3 (mouse fibroblasts)
In words: Ret/MEN2A(C634R) autophosphorylation and expression in NIH3T3 transfectants (Western blotting). As to conditions: 10 μM. It is filed as cell-based. Here is the method:
(§1) FIG. 1. Effects of Cpd 1 on NIH3T3^MEN2A(C634R) transfectants expressing exogenous RET/MEN2A(C634R). […] Cells were exposed to 6 μM Cpd1 for 24 h and then photographed under a phase-contrast microscope (original magnification ×100). B) Antiproliferative effect. NIH3T3^MEN2A(C634R) cells and the parental NIH3T3 cells were treated with increasing concentrations of the drug for 72 h and then counted with a Coulter Counter. […] C) Inhibition of Ret/MEN2A(C634R) autophosphorylation and expression. Cells were treated with solvent (−) or 10 μM Cpd1 (+), for the indicated times. Whole cell-lysates were prepared and subjected to SDS-PAGE and Western blotting with anti-pTyr antibody. After stripping, the filter was reblotted with anti-Ret antibody. Arrows indicate the partial and fully glycosilated forms of the Ret/MEN2A receptor.
(§2) The following human medullary thyroid carcinoma (MTC) cell lines were used in this study. The TT cell line derived from a MEN2A-associated MTC characterized by expression of the RET oncogene carrying the mutation C634W. The MZ-CRC-1 cell line derived from MEN2B-associated MTC characterized by expression of the RET oncogene carrying the mutation M918T. TT cells were cultivated in Ham's F12 medium (BioWhittaker, Verviers, Belgium) supplemented with 15% fetal calf serum (FCS) (Life Technologies, Inc., Gaithersburg, Md.) whereas MZ-CRC-1 cells were grown in Dulbecco's modified Eagle's medium (DMEM) (BioWhittaker) supplemented with 10% FCS. […]
For whole-cell extract preparation, cells were lysed in sodium dodecyl sulfate (SDS) sample buffer (62.5 mM Tris-HCl (pH 6.8), 2% SDS) with 1 mM PMSF, 10 μg/ml pepstatin, 12.5 μg/ml leupeptin, 100 KIU aprotinin, 1 mM sodium orthovanadate, 1 mM sodium molybdate. Protein concentration was determined in appropriately diluted aliquots by the bicinchionic acid (BCA) method (Pierce, Rockford, Ill.), then samples were adjusted to a final concentration of 10% glycerol, 5% β-mercaptoethanol, 0.001% bromophenol blue. […]
(Immunoblotting shows a protein as a band on a membrane.)

The test system of assay [1] is NIH3T3^MEN2A(C634R) cells. In words: Reversion of transformed morphologic phenotype of NIH3T3 MEN2A(C634R) transfectants. As to conditions: 6 μM, 24 h, phase-contrast microscope. It is filed as cell-based, murine. Here is the method:
as §1
(§3) The following human medullary thyroid carcinoma (MTC) cell lines were used in this study. The TT cell line derived from a MEN2A-associated MTC characterized by expression of the RET oncogene carrying the mutation C634W. The MZ-CRC-1 cell line derived from MEN2B-associated MTC characterized by expression of the RET oncogene carrying the mutation M918T. […]

The target in another assay is T2, Met (Homo sapiens, UniProt P08581).
T2 construct: endogenous in cells; host or cells: TPC-1 (human papillary thyroid carcinoma)
The assay can be described thus: Met autophosphorylation and expression in TPC-1 cells (IP/Western blotting). The class given is cell-based. Here is the method: FIG. 4. Inhibition of Met autophosphorylation and expression in human papillary thyroid carcinoma cells (TPC-1) treated with Cpd1. A): TPC-1 cells were exposed to solvent (−) or the indicated concentrations of Cpd 1 for 72 h. Equal amounts of protein were used for immunoprecipitation (IP) with anti-Met antibody or for the preparation of whole cell lysates (WCL). Immunoprecipitated proteins and WCLs were separated by SDS-PAGE, transferred to nitrocellulose membranes, and subjected to Western blotting with anti-pTyr or anti-Met antibodies. B): Cells were treated as in A. Cell extracts were immunoprecipitated with anti-pTyr antibody and probed with anti-Met antibody. C): Cells were serum-starved for 24 h and exposed to solvent or Cpd1 (60 μM) during the last 18 h. Then they were left untreated (−) or stimulated with 20 ng/ml HGF (+), for 10 min. Cell lysates were immunoprecipitated with anti-Met and probed with anti-pTyr or anti-Met antibody. Drug treatment abolished the constitutive or HGF-induced Met tyrosine phosphorylation and induced a reduction of Met expression.
as §2, with “FCS. The human papillary thyroid carcinoma cell line TPC-1 which was used as a model of Met overexpression, was routinely cultivated in DMEM with 10% FCS.” for “FCS.”
(§4) For immunoprecipitation experiments, cells were treated with Cpd1 or solvent for the indicated times. […] Protein concentration was determined by the BCA reagent (Pierce). […]

Another assay concerns the target T3, Kit (Δ559) (Homo sapiens, UniProt P10721, DEL559-559).
T3 construct: expressed in transfected cells; host or cells: NIH3T3 (mouse fibroblasts)
The assay can be described thus: Kit (Δ559) autophosphorylation and expression in NIH3T3 transfectants. The class given is cell-based. As to conditions: 72 h. The protocol: FIG. 7. Effects of Cpd1 on cell lines expressing constitutively activated forms of Kit. […] Cells were treated with 20 μM Cpd1 and photographed 24 h later under a phase-contrast microscope (original magnification X 100). B): Inhibition of Kit (Δ559) autophosphorylation and expression in NIH3T3 transfectants. Cells were treated with Cpd 1 at the indicated concentrations, for 72 h. Cell lysates were immunoprecipitated with anti-Kit antibody and subjected to Western blotting with anti-p-Tyr or anti-Kit antibodies. C): Inhibition of expression and autocrine loop-activated autophosphorylation of c-Kit in the SCLC cell line N592. Cells were treated with Cpd 1 at the indicated concentrations, for 24 h. Whole cell lysates were subjected to Western blotting with anti-Kit antibody or with an antibody specifically recognizing the tyrosine phosphorylated/activated Kit (p-Kit).
as §3, §4

T2 sequence (P08581 25-1390): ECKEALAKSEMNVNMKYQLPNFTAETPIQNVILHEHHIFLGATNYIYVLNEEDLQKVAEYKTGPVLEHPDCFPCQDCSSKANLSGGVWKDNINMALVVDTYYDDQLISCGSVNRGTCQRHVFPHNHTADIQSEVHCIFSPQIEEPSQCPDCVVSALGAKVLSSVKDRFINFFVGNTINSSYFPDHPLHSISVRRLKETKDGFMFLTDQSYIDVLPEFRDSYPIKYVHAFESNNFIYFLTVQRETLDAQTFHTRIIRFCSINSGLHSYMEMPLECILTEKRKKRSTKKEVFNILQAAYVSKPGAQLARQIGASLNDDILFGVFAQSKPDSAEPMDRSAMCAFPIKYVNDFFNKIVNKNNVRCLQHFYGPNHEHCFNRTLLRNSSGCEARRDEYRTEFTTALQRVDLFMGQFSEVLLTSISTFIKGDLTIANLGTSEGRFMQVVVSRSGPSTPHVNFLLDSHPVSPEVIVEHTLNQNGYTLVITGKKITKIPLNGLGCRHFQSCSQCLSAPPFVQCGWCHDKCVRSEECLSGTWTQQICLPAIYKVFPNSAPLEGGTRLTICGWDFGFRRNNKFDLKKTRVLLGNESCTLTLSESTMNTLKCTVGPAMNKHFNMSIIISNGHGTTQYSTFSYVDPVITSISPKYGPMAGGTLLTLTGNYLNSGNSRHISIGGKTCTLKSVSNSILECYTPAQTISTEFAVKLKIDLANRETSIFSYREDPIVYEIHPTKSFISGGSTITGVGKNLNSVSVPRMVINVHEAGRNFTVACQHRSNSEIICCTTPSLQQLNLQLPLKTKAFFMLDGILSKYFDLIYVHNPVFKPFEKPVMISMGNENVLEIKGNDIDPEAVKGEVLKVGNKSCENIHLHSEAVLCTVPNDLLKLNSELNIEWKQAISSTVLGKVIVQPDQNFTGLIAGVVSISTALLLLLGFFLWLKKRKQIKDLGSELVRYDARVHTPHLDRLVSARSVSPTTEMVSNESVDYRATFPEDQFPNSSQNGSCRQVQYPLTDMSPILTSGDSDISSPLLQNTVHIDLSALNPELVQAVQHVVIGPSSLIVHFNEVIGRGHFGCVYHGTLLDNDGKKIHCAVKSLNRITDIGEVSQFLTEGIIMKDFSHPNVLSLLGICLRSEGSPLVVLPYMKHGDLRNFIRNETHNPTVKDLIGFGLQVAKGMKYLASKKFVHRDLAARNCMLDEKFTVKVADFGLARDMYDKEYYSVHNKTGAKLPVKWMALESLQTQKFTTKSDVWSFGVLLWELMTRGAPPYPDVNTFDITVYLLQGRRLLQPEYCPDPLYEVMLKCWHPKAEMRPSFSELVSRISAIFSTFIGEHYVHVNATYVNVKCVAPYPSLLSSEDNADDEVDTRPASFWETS
T1 sequence (P07949 29-1072 isoform P07949-2 C634R limits assumed): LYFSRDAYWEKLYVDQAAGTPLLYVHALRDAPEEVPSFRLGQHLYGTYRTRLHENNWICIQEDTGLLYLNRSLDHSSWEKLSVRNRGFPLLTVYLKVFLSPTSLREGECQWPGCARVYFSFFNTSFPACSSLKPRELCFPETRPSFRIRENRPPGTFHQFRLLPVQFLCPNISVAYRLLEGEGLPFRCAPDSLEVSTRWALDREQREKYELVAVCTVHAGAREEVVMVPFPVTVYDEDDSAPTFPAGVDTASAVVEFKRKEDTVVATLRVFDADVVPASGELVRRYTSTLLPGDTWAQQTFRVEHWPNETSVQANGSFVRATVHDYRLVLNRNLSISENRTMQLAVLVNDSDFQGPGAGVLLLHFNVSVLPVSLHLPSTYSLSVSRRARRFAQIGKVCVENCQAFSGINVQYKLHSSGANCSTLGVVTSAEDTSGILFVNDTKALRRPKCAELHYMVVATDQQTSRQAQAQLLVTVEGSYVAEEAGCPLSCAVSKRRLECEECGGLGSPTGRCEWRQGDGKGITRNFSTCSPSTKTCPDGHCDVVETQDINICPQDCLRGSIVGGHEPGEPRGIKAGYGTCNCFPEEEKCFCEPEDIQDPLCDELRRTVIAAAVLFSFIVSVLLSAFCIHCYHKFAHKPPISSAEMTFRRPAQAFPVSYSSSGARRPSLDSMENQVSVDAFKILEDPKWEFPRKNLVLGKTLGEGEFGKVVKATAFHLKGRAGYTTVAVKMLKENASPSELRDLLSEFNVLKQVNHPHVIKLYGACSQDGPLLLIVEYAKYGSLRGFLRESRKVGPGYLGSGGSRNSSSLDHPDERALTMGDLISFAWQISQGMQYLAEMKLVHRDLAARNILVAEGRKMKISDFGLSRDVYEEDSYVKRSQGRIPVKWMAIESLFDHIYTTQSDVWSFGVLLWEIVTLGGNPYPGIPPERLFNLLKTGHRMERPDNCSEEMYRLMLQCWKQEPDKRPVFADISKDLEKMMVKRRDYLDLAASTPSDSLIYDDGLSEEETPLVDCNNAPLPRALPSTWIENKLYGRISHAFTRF
T3 sequence (P10721 with tags, fused parts or gaps DEL559-559): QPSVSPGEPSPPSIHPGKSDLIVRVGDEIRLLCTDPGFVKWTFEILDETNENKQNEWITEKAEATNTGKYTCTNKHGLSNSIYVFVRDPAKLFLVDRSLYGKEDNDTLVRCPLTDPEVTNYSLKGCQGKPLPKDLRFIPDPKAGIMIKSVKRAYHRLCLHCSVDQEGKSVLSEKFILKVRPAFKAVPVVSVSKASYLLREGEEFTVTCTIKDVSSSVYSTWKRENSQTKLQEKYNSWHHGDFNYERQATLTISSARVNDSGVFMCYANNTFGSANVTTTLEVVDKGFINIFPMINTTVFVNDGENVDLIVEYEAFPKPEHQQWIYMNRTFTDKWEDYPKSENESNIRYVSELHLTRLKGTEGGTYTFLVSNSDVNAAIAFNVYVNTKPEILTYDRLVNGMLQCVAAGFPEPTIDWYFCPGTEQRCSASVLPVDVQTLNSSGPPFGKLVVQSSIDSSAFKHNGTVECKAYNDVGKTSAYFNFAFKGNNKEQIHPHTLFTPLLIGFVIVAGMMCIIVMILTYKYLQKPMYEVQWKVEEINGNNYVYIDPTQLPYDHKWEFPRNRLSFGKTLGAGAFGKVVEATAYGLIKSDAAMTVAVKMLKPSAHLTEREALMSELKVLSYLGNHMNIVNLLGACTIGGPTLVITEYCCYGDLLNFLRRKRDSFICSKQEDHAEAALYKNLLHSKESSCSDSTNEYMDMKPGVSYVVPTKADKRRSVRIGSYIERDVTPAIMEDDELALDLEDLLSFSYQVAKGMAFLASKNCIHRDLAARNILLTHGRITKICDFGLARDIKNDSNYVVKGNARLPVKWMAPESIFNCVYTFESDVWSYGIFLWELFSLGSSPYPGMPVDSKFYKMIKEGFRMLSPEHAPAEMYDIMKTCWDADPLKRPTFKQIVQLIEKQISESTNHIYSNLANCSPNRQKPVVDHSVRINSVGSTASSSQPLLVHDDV

In the case of `COc1cc2c(cc1OC)/C(=C\c1ccc(O)cc1)C(=O)N2` [Cpd 1, (E)-1,3-dihydro-5,6-dimethoxy-3-[(4-hydroxyphenyl)methylene]-2H-indol-2-one], the “Ret/MEN2A(C634R) tyrosine phosphorylation” value on Ret/MEN2A(C634R) (2 h of exposure) is given as “partially dephosphorylated”. At Ret/MEN2A(C634R) (longer times than 2 h), the “Ret/MEN2A(C634R) receptor expression” value is “reduced expression” and the “Ret/MEN2A(C634R) tyrosine phosphorylation” value is “complete tyrosine dephosphorylation”. Besides, the Transformed morphologic phenotype entry in assay [1] is on record as “Reversion of the transformed morphologic phenotype”. In addition, the Met expression result at Met (TPC-1 cells) is on record as “reduction”. For the same molecule, at Met (TPC-1 cells serum-starved, 60 μM for 18 h, 20 ng/ml HGF 10 min), the “HGF-induced Met tyrosine phosphorylation” value is “abolished”. Also, the “Constitutive Met tyrosine phosphorylation (autophosphorylation)” value on Met (TPC-1 cells, 72 h) is recorded as “dose-dependent inhibition; also recorded: abolished”. Also, on Kit (Δ559), the “Kit (Δ559) expression” value is “dose-dependent drug-induced inhibition” and the “Kit (Δ559) tyrosine phosphorylation” value was “dose-dependent drug-induced inhibition”.
